Our source for the IC50 and Kp values is patent US11685744B2, “CDK inhibitors and their use as pharmaceuticals” (Prelude Therapeutics, Incorporated, priority 2020, dated 2023).

The target of series [1] is CDK4/Cyclin D1 (Homo sapiens (Human), UniProt P11802). Nature of the series: CDK4/CyclinD1 enzymatic activity assay (TR-FRET). In kind it is biochemical. The conditions noted are these: ATP 2 mM, read-out: CDK4_D1 IC50. In outline:
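Insect-cell CDK4/Cyclin D1 (1 nM) with ULight-4E-BP1 (100 nM) and 2 mM ATP in HEPES pH 7.4 buffer, preincubated 20 min with compound (9-dose, 3-fold dilutions); 10 mM MgCl2 started the reaction, run 60 min at 37 °C. EDTA/Eu-anti-phospho-4E-BP1 TR-FRET detection; IC50 from 4-parameter Hill fit.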

Series [2] deals with CDK6/Cyclin D1 (Homo sapiens (Human), UniProt Q00534). Nature of the series: CDK6/CyclinD1 enzymatic activity assay (TR-FRET). Format: biochemical. The conditions noted are these: ATP 250 μM, read-out: CDK6_D1 IC50. Here is the method:
CDK6/CyclinD1 Enzymatic Activity Assay
The inhibitory activity of compounds was evaluated in vitro using TR-FRET assay with white 384-well low volume microplate (Greiner Bio-One). CDK6/Cyclin D1 catalyzed phosphorylation of peptide in the presence and absence of compounds was measured and used in IC50 determination. Recombinant protein complex CDK6/Cyclin D1, expressed from insect cell, was purchased from ProQinase. Testing compounds were dissolved in DMSO at 0.1 mM and tested in 9-dose IC50 mode. The reaction mixture was prepared by mixing CDK6/Cyclin D1 (1 nM final), ULight-4E-BP1 (100 nM final, Perkinelmer, TRF0128-D), and ATP (250 μM final) in assay buffer (20 mM of HEPES pH 7.4, 1 mM of EGTA, 0.05% BSA, 0.005% Tween 20, and 1 mM TCEP). The compound of interest in DMSO was added to each well in 3-fold serial dilution by dispenser (TECAN D300E). After 20 minutes preincubation at room temperature, 0.1 μL MgCl2 (10 mM final) was added to initiate the reaction. Following a 60 minutes incubation at 37° C., the reaction was stopped by addition of 2 μL of quenching buffer consisting of Lance detection buffer (Perkinelmer CR97-100C), 2 nM LANCE Ultra Europium-anti-P-4E-BP1 (Perkinelmer, TRF0216-D), 10 mM EDTA, and incubate at room temperature for additional 60 minutes in dark. The reaction signal was measured by Envision multimode plate reader (PerkinElmer, 2102-0010). IC50 values were determined by fitting the data to the standard 4 parameters with Hill Slope using GraphPad Prism software.
On the technique in general: In TR-FRET formats the signal depends on donor and acceptor labels being close together.

Series [3] relates to MCF7 adenocarcinoma cell line. Nature of the series: Cell proliferation studies in MCF7 cells (ATP-Lite, 10 days). Format: cell-based. The conditions noted are these: Homo sapiens, 240 h, read-out: PROLIFERATION_CTG_MCF7 IC50. In outline:
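Cells were seeded at 100 or 200 per well in DMEM with 10% FBS and dosed in quadruplicate over a 9-point 3-fold dilution. Incubation lasted 10 days at 37 °C, with media exchange and re-dosing on day 5. Viability was read by ATP-Lite luminescence and normalised to background and DMSO, giving IC50.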

Series [4] can be described thus: Brain-to-plasma ratio (Kp) determination in Sprague-Dawley rats. To be noted: male, rat, po, 10 mg/kg.
Description: The brain-to-plasma ratio (Kp) was determined in male Sprague-Dawley rats (7-9 weeks old) four hours after a single oral dose. Rats were acclimated and given free access to standard rodent chow and water throughout the entire study. Test articles were formulated as a solution at 0.3, 0.4, 0.5, or 1.0 mg/mL in a vehicle comprised of 10:15:75 (v:v:v) dimethylacetamide (DMA):Solutol HS15:water and delivered orally at a rate of 10 mL/kg to three rats to achieve final doses of 3, 4, 5, or 10 mg/kg, respectively. At 4 hours post-dose, blood samples were collected via jugular vein cannula into tubes containing K2EDTA as the anticoagulant and stored on ice. Blood samples were then centrifuged at 4° C. at 6000 rpm for 5 minutes, and the resulting plasma was placed into tubes and stored frozen at −80° C. until analysis. Whole brain samples were also collected at 4 hours post-dose. The weight of each brain was measured and recorded, and samples were immediately stored on dry ice. Brain samples were then transferred to storage at −80° C. until analysis.
Prior to analysis, brain samples were combined with water (4 mL/1 gram of brain) and homogenized. Prior to injection, plasma and brain homogenate samples and standards were prepared for analysis by precipitation with acetonitrile or 1:1 (v:v) methanol:acetonitrile. Samples were then thoroughly mixed, centrifuged at 4000 rpm for 15 minutes, and the resulting supernatant was transferred for analysis. Test article concentrations in plasma and brain homogenate were then determined by LC-MS/MS and quantified against calibration standards prepared to known concentrations in matched blank (analyte-free) biological matrix. The Kp was then determined by dividing the dilution-corrected brain concentration by the plasma concentration from each rat. A brain density of 1 gram/mL was assumed for all calculations.
The mark [5] stands for this setting: brain (homogenate) versus plasma.

The term Kp denotes the ratio of the level in a tissue or fluid to that in plasma or blood.

CDK6/Cyclin D1, sequence (Q00534 whole entry): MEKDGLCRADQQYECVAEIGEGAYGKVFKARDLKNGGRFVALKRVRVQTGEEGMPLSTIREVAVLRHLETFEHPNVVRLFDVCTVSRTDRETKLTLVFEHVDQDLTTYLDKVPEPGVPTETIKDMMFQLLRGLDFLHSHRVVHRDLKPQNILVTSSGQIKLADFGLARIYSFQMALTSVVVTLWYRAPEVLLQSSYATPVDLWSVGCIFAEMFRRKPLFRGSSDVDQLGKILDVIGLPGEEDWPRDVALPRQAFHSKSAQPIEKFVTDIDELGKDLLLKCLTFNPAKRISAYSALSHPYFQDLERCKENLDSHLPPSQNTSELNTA
CDK6/Cyclin D1, sequence (P24385 whole entry partner): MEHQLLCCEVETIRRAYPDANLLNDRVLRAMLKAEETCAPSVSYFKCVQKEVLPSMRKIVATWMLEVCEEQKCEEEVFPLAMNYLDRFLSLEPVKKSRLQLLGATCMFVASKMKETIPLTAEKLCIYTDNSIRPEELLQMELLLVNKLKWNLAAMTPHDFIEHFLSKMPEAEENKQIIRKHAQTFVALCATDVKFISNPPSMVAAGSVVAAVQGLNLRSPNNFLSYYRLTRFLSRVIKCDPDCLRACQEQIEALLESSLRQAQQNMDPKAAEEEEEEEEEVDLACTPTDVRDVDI
CDK4/Cyclin D1, sequence (P11802 whole entry): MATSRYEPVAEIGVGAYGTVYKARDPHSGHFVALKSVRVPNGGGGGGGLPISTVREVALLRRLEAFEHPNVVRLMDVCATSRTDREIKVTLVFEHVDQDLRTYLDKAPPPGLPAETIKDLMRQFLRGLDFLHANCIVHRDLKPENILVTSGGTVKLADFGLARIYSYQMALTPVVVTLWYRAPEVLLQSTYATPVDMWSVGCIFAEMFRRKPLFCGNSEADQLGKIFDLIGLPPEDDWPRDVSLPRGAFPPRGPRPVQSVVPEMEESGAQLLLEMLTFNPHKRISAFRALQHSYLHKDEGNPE
CDK4/Cyclin D1, sequence (P24385 whole entry partner): as the sequence (P24385 whole entry partner) above

For `Cc1c(-c2nc(Nc3ccc(N4CCC(N(C)C)C4)cn3)ncc2F)sc2c1nc(C)n2C(C)C` (stereo not shown) [Example 73, N-[5-[3-(Dimethylamino)pyrrolidin-1-yl]pyridin-2-yl]-4-(2,6-dimethyl-3-propan-2-ylthieno[2,3-d]imidazol-5-yl)-5-fluoropyrimidin-2-amine], the IC50 is no more than 0.02 µM in series [1], 0.02 to 0.2 µM in series [2] and 0.02 to 0.2 µM in series [3]. The Kp at 4 h in series [4] (setting [5]) lay in the range of 1 to 3.
For `[2H]C([2H])([2H])N1CCC(c2ccc(Nc3ncc(F)c(-c4sc5c(C(C)C)cn(C)c(=O)c5c4C)n3)nc2)CC1` [Example 82, 2-(5-Fluoro-2-((5-(1-(methyl-d3)piperidin-4-yl)pyridin-2-yl)amino)pyrimidin-4-yl)-7-isopropyl-3,5-dimethylthieno[3,2-c]pyridin-4(5H)-one], the IC50 was no more than 0.02 µM in series [1], no more than 0.02 µM in series [2] and 0.02 to 0.2 µM in series [3]. Also, the Kp at 4 h in series [4] (setting [5]) is greater than 3.
`CCN1CCN(c2ccc(Nc3ncc(F)c(-c4sc5c(C(C)(O)C(F)(F)F)n(C)nc5c4C)n3)nc2)CC1` (stereo not shown) [Example 102, 2-(5-(2-((5-(4-Ethylpiperazin-1-yl)pyridin-2-yl)amino)-5-fluoropyrimidin-4-yl)-2,6-dimethyl-2H-thieno[3,2-c]pyrazol-3-yl)-1,1,1-trifluoropropan-2-ol]: the IC50 in series [1] was no more than 0.02 µM; in series [2], no more than 0.02 µM; in series [3], 0.02 to 0.2 µM. Also, in series [4] (setting [5]), the Kp at 4 h lay in the range of 1 to 3.
For `Cc1c(-c2nc(Nc3ccc(C4CCN(C)CC4)cn3)ncc2F)sc2c(C(C)C)cn(C)c(=O)c12` [Example 56, 2-(5-Fluoro-2-((5-(1-methylpiperidin-4-yl)pyridin-2-yl)amino)pyrimidin-4-yl)-7-isopropyl-3,5-dimethylthieno[3,2-c]pyridin-4(5H)-one], the IC50 in series [1] was no more than 0.02 µM; in series [2] it was no more than 0.02 µM; in series [3], 0.02 to 0.2 µM. In series [4] (setting [5]), the Kp at 4 h is greater than 3.
In the case of `Cc1c(-c2nc(Nc3ccc(N4CCN(C(C)C)CC4)cn3)ncc2F)sc2c(C(C)C)cn(C)c(=O)c12` [Example 89, 2-(5-Fluoro-2-((5-(4-isopropylpiperazin-1-yl)pyridin-2-yl)amino)pyrimidin-4-yl)-7-isopropyl-3,5-dimethylthieno[3,2-c]pyridin-4(5H)-one], the IC50 in series [1] was no more than 0.02 µM; in series [2], no more than 0.02 µM; in series [3] it was 0.02 to 0.2 µM. For the same compound, the Kp at 4 h in series [4] (setting [5]) was greater than 3.
On to `Cc1nc2cc(-c3nc(Nc4ccc(CN5CCN(CC(F)F)CC5)cn4)ncc3F)sc2n1C(C)C` [Example 64, N-[5-[[4-(2,2-Difluoroethyl)piperazin-1-yl]methyl]pyridin-2-yl]-5-fluoro-4-(2-methyl-3-propan-2-ylthieno[2,3-d]imidazol-5-yl)pyrimidin-2-amine], for which the IC50 in series [1] fell in the range of 0.02 to 0.2 µM; in series [2], 0.02 to 0.2 µM; in series [3], 0.2 to 2 µM. In series [4] (setting [5]), the partition ratio (Kp) at 4 h was less than 1.
For the compound `CC(C)c1c2sc(-c3nc(Nc4ccc(C5CCN(C)CC5)cn4)ncc3F)cc2nn1C` [Example 99, 5-Fluoro-4-(3-isopropyl-2-methyl-2H-thieno[3,2-c]pyrazol-5-yl)-N-(5-(1-methylpiperidin-4-yl)pyridin-2-yl)pyrimidin-2-amine], the values for the IC50 in series [1], in series [2] and in series [3] were no more than 0.02 µM, 0.02 to 0.2 µM and 0.02 to 0.2 µM, respectively. For the same compound, in series [4] (setting [5]), the Kp at 4 h is greater than 3.
As to `CCN1CC2(C1)CN(c1ccc(Nc3ncc(F)c(-c4sc5c(C(C)C)n(C)nc5c4C)n3)nc1)C2` [Example 55, 4-(2,6-Dimethyl-3-propan-2-ylthieno[3,2-c]pyrazol-5-yl)-N-[5-(6-ethyl-2,6-diazaspiro[3.3]heptan-2-yl)pyridin-2-yl]-5-fluoropyrimidin-2-amine], the IC50 is no more than 0.02 µM in series [1], no more than 0.02 µM in series [2] and 0.02 to 0.2 µM in series [3]. Further, the Kp at 4 h in series [4] (setting [5]) is greater than 3.
Take `CCN1CC2(CC(c3ccc(Nc4ncc(F)c(-c5cc6nc(C)n(C(C)C)c6s5)n4)nc3)C2)C1` [Example 112, N-(5-(2-Ethyl-2-azaspiro[3.3]heptan-6-yl)pyridin-2-yl)-5-fluoro-4-(3-isopropyl-2-methyl-3H-thieno[2,3-d]imidazol-5-yl)pyrimidin-2-amine]: the IC50 in series [1] is no more than 0.02 µM; in series [2], 0.02 to 0.2 µM; in series [3] it was 0.02 to 0.2 µM. Further, the Kp at 4 h in series [4] (setting [5]) is less than 1.
`Cc1c(-c2nc(Nc3ccc(C4CCCN(C)C4)cn3)ncc2F)sc2c1ncn2C(C)C` (single isomer, unassigned) [Example 125, 5-Fluoro-N-[5-[-1-methylpiperidin-3-yl]pyridin-2-yl]-4-(6-methyl-3-propan-2-ylthieno[2,3-d]imidazol-5-yl)pyrimidin-2-amine]: the IC50 is no more than 0.02 µM in series [1], no more than 0.02 µM in series [2] and 0.02 to 0.2 µM in series [3]. Further, the Kp at 4 h in series [4] (setting [5]) is 1 to 3.
Take `Cc1c(-c2nc(Nc3ccc(N4CCN(C)CC4)cn3)ncc2F)sc2c(C(C)C)cn(C)c(=O)c12` [Example 51, 2-[5-Fluoro-2-[[5-(4-methylpiperazin-1-yl)pyridin-2-yl]amino]pyrimidin-4-yl]-3,5-dimethyl-7-propan-2-ylthieno[3,2-c]pyridin-4-one]: the IC50 is no more than 0.02 µM in series [1], no more than 0.02 µM in series [2] and 0.02 to 0.2 µM in series [3]. In addition, the Kp at 4 h in series [4] (brain / plasma) is greater than 3.
On to `CC(C)c1cn(C)c(=O)c2cc(-c3nc(Nc4ccc(C5CCN(C)CC5)cn4)ncc3F)sc12` [Example 86, 2-(5-Fluoro-2-((5-(1-methylpiperidin-4-yl)pyridin-2-yl)amino)pyrimidin-4-yl)-7-isopropyl-5-methylthieno[3,2-c]pyridin-4(5H)-one], for which the IC50 in series [1] is no more than 0.02 µM; in series [2], 0.02 to 0.2 µM; in series [3], 0.02 to 0.2 µM. For the same compound, the Kp at 4 h in series [4] (setting [5]) fell in the range of 1 to 3.
On to `Cc1c(-c2nc(Nc3ccc(N4CCC5(CC4)CN(C)C5)cn3)ncc2F)sc2c(C(C)C)cn(C)c(=O)c12` [Example 91, 2-(5-Fluoro-2-((5-(2-methyl-2,7-diazaspiro[3.5]nonan-7-yl)pyridin-2-yl)amino)pyrimidin-4-yl)-7-isopropyl-3,5-dimethylthieno[3,2-c]pyridin-4(5H)-one], for which the IC50 in series [1] is no more than 0.02 µM; in series [2] it was no more than 0.02 µM; in series [3], 0.02 to 0.2 µM. Also, the Kp at 4 h in series [4] (setting [5]) is less than 1.
Regarding `[2H]C([2H])([2H])n1cc(C(C)C)c2sc(-c3nc(Nc4ccc(C5CCN(C)CC5)cn4)ncc3F)c(C)c2c1=O` [Example 85, 2-(5-Fluoro-2-((5-(1-methylpiperidin-4-yl)pyridin-2-yl)amino)pyrimidin-4-yl)-7-isopropyl-3-methyl-5-(methyl-d3)thieno[3,2-c]pyridin-4(5H)-one], the IC50 is no more than 0.02 µM in series [1] and 0.02 to 0.2 µM in series [3]. Also, the Kp at 4 h in series [4] (setting [5]) is greater than 3.
As to `CCN1CC2(C1)CN(c1ccc(Nc3ncc(F)c(-c4cc5nccc(C(C)(C)O)c5s4)n3)nc1)C2` [Example 21, 2-[2-[2-[[5-(6-Ethyl-2,6-diazaspiro[3.3]heptan-2-yl)pyridin-2-yl]amino]-5-fluoropyrimidin-4-yl]thieno[3,2-b]pyridin-7-yl]propan-2-ol], the IC50 in series [1] is no more than 0.02 µM; in series [3], 0.02 to 0.2 µM. For the same compound, the Kp at 4 h in series [4] (brain / plasma) is less than 1.
`Cc1c(-c2nc(Nc3ccc(N4CCN(C)CC4=O)cn3)ncc2F)sc2c1nc(C)n2C(C)C` [Example 75, 1-[6-[[4-(2,6-Dimethyl-3-propan-2-ylthieno[2,3-d]imidazol-5-yl)-5-fluoropyrimidin-2-yl]amino]pyridin-3-yl]-4-methylpiperazin-2-one]: the IC50 in series [1], in series [2] and in series [3] was no more than 0.02 µM throughout.
For `CCN1CCC(c2ccc(Nc3ncc(F)c(-c4sc5c(nc(C)n5C5CCC5)c4C)n3)nc2)CC1` [Example 8, 4-(3-Cyclobutyl-2,6-dimethyl-3H-thieno[2,3-d]imidazol-5-yl)-N-(5-(1-ethylpiperidin-4-yl)pyridin-2-yl)-5-fluoro-pyrimidin-2-amine], the IC50 in series [1] was no more than 0.02 µM; in series [3] it was 0.02 to 0.2 µM. Further, the Kp at 4 h in series [4] (setting [5]) is 1 to 3.
